Data from US9776972B2, “Pyrazole derivatives as arginine methyltransferase inhibitors and uses thereof” (priority 2013, dated 2017).
pIC50: −log10 of the molar value. Like-named read-outs stand apart in the source and are kept apart here.

Key:
[1] = tested on: mono-methyl arginine in RKO cells; experiment: RKO Methylation Assay, In Cell Western (ICW) for mono-methyl arginine and DNA content; assay type: cell-based; settings: for EC30: Homo sapiens, RKO, 72 h; for EC30 (In Cell Western data): class symbols
Summary of the method: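 After fixation, mono-methyl arginine and DNA (DRAQ5) were measured by infrared In-Cell Western imaging at 700/800 nm in RKO cells exposed to compounds for 72 hours. Percent activation used DMSO wells as minimum and 20 μM reference compound as maximum; EC30 curves fitted on triplicate wells.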

[2] = target: T1, human PRMT1 (Homo sapiens, UniProt Q99873); experiment: PRMT1 Biochemical Assay (3H-SAM Flashplate, peptide substrate); settings: single experiment or average of multiple experiments
T1 construct: GST-tagged PRMT1; made in house; host or cells: High Five insect cells (baculovirus)
T1 sequence (Q99873 with tags, fused parts or gaps): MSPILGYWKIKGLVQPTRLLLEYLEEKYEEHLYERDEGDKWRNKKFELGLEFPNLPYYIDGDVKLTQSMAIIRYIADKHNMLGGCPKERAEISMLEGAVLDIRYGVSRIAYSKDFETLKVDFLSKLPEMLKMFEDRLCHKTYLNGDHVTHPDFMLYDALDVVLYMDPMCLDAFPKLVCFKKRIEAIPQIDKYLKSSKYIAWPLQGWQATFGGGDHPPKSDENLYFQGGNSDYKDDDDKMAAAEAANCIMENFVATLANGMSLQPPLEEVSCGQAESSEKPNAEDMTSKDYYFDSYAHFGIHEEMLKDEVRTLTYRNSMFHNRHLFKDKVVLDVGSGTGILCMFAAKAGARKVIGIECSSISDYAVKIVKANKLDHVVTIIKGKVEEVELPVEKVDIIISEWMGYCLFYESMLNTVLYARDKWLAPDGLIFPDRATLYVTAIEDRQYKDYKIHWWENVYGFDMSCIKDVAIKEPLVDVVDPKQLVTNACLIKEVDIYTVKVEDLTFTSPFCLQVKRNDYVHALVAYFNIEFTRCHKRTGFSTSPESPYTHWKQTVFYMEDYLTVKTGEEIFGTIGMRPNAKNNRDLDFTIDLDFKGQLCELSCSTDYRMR
Summary of the method: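 GST-tagged PRMT1 from baculovirus-infected cells, preincubated with compounds 30 min at room temperature in 20 mM Bicine pH 7.6, 1 mM TCEP, 0.005% BSG, 0.002% Tween 20. Reaction started with ³H-SAM plus biotinylated peptide, stopped with 300 µM cold SAM.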

[3] = RKO cells, 72 hours, mono-methyl arginine, percent activation, single experiment or average of multiple experiments, read-out: EC30 (In Cell Western data, Numerical)
[4] = RKO cells, 72 hours, mono-methyl arginine, percent activation
[5] = read-out: EC30 (In Cell Western data, Numerical, μM)

Structure (SMILES)	pIC50 [2]	EC30 [1, 3]	further results
CN(CCN)Cc1nn(C)cc1-c1ccc(C#N)cc1 [Compound 83]	7.52	6.75 µM	–
CNCCN(C)Cc1c[nH]nc1-c1ccccc1NS(C)(=O)=O [Compound 41]	–	–	EC30 (In Cell Western data) [1, 4]: C (“C” indicates an EC30 ≧ 12.01 μM)
CNCCN(C)Cc1c[nH]nc1-c1cccc(N)c1 [Compound 32]	–	–	EC30 (In Cell Western data) [1, 4]: C (“C” indicates an EC30 ≧ 12.01 μM)
CN(CCN)Cc1c[nH]nc1-c1ccc(C(F)(F)F)cc1C(F)(F)F [Compound 85]	6.63	–	EC30 [1, 5]: > 20 µM
NCCN(Cc1c[nH]nc1-c1ccc(F)cc1)C1CC1 [Compound 78]	6.48	10.6 µM	–
CN(CCN)Cc1cn(C2COC2)nc1-c1ccc(F)cc1 [Compound 77]	6.67	–	EC30 [1, 5]: 12.5 µM
CNCCN(C)Cc1c[nH]nc1-c1cccc(C(C)=O)c1 [Compound 44]	–	–	EC30 (In Cell Western data) [1, 4]: C (“C” indicates an EC30 ≧ 12.01 μM)
CN(CCN)Cc1cnn(C2COC2)c1-c1ccc(F)cc1 [Compound 81]	6.36	> 20 µM	–
CC(C)N(CCN)Cc1c[nH]nc1-c1ccc(F)cc1 [Compound 75]	6.21	> 20 µM	–
CC(C)Oc1ccc(-c2n[nH]cc2CN(C)CCN)cc1Cl [Compound 168]	–	0.066 µM	–
CNCCN(C)Cc1c[nH]nc1-c1ccc(-c2ccccc2)cc1 [Compound 47]	–	–	EC30 (In Cell Western data) [1, 4]: A (“A” indicates an EC30 ≦ 3.00 μM); EC30 (In Cell Western data, Numerical, μM) ([1]; RKO cells, 72 hours, mono-methyl arginine, percent activation, single experiment or average of multiple experiments): 0.104 µM
CNCCN(C)Cc1c[nH]nc1-c1ccc(CC#N)cc1 [Compound 34]	–	–	EC30 (In Cell Western data) [1, 4]: C (“C” indicates an EC30 ≧ 12.01 μM)
CN(CCN)Cc1c[nH]nc1-c1ccc(OC(F)(F)F)cc1 [Compound 93]	8.33	1.11 µM	–
CN(CCN)Cc1cn(C)nc1-c1ccc(F)cc1 [Compound 3]	7.24	16.2 µM	–
CN(CCN)Cc1c[nH]nc1-c1ccc(C(C)(C)C)cc1 [Compound 74]	7.83	6.34 µM	–
CN(CCN)Cc1cnn(C)c1-c1ccc(F)cc1 [Compound 4]	6.82	–	EC30 [1, 5]: 12.1 µM
CN(CCN)Cc1c[nH]nc1-c1ccc(F)cc1 [Compound 1]	–	7.4 µM	–
CC(C)Oc1ccc(-c2n[nH]cc2CN(C)CCN)cc1 [Compound 67]	–	0.507 µM	–
CNCCN(C)Cc1c[nH]nc1-c1ccccc1O [Compound 35]	–	–	EC30 (In Cell Western data) [1, 4]: C (“C” indicates an EC30 ≧ 12.01 μM)
CN(CCN)Cc1c[nH]nc1-c1ccc(N2CCNCC2)cc1 [Compound 82]	7.02	> 20 µM	–
COCCn1cc(CN(C)CCN)c(-c2ccc(F)cc2)n1 [Compound 5]	5.93	> 20 µM	–
CNCCN(C)Cc1c[nH]nc1-c1cccc(NC(C)=O)c1 [Compound 42]	–	–	EC30 (In Cell Western data) [1, 4]: C (“C” indicates an EC30 ≧ 12.01 μM)

Now from value to compound, other results behind:

pIC50 [2]	Structure (SMILES)	EC30 [1, 3]	further results
6.56	CN(CCN)Cc1c[nH]nc1-c1ccccc1F [Compound 72]	–	–
8.10	CN(CCN)Cc1c[nH]nc1-c1ccc(OC(F)F)cc1 [Compound 94]	1.78 µM	–
8.11	CN(CCN)Cc1c[nH]nc1-c1ccc(Cl)cc1 [Compound 95]	1.23 µM	–
7.38	Cc1ccc(-c2n[nH]cc2CN(C)CCN)c(Cl)c1 [Compound 90]	10.4 µM	–
8.24	CN(CCN)Cc1c[nH]nc1-c1ccc(C(F)(F)F)cc1 [Compound 92]	0.956 µM	–
6.89	Cc1ccc(-c2n[nH]cc2CN(C)CCN)c(C)c1 [Compound 88]	14.5 µM	–
6.70	CN(CCN)Cc1c[nH]nc1-c1cccc(C#N)c1 [Compound 70]	> 20 µM	–
7.29	CN(CCN)Cc1n[nH]cc1-c1ccc(F)cc1 [Compound 69]	7.99 µM	–
7.73	CN(CCN)Cc1c[nH]nc1-c1cccc(F)c1 [Compound 71]	3.72 µM	–
6.90	CN(CCN)Cc1c[nH]nc1-c1ccccc1 [Compound 73]	14.7 µM	–
7.17	CN(CCN)Cc1c[nH]nc1-c1ccc(F)cc1Cl [Compound 89]	11 µM	–
6.76	COc1ccc(-c2n[nH]cc2CN(C)CCN)c(OC)c1 [Compound 87]	> 20 µM	–
6.56	Cc1ccc(Cl)c(-c2n[nH]cc2CN(C)CCN)c1 [Compound 91]	> 20 µM	–
7.62	CN(CCN)Cc1c[nH]nc1-c1ccc(Cl)cc1Cl [Compound 86]	5.63 µM	–
